Values quoted from earlier work, collected in US20040062754A1, “Photopheresis treatment of chronic HCV infections” (priority 1996, published 2004).

What was measured:
[1] = tested on: progressive systemic sclerosis; settings: 56 patients enrolled

For `CC(C)(S)[C@@H](N)C(=O)O` [D-penicillamine], the response rate [1] is listed as 32%.
In the case of interferon alpha-2b, recombinant, the “sustained response off treatment” value (hepatitis C virus; six month course, 3 million units three times a week) is listed as 18%.
In the case of `Nc1nc2c(ncn2COCCO)c(=O)[nH]1` [acyclovir], the “benefit in chronic hepatitis C” value (hepatitis C virus; in vivo) is given as “little benefit”.
For interferon-alpha, the “relapse rate after interferon therapy” value (hepatitis C virus; in vivo) is given as 80-85% and the “patients with normal LFTs and nondetectable HCV RNA by RT-PCR seven years later” value (hepatitis C virus; ten patients, subcutaneous injections for up to a year) is given as “Six”.
